Measurements from patent publication US20240228491A1, “METHIONINE ADENOSYLTRANSFERASE INHIBITOR, PREPARATION METHOD THEREFOR AND APPLICATION THEREOF” (SCINNOHUB PHARMACEUTICAL CO., LTD., priority 2021, published 2024).

target: MAT2a (Homo sapiens (Human), UniProt P31153); assay: MAT2a enzymatic activity test (colorimetric assay); format: biochemical; conditions: OD620, 150 min reaction, read-out: IC50 against MAT2a
Protocol: The Colorimetric assay method was used to detect the IC50 value of the tested compounds on MAT2a.
The specific steps were as follows: The compounds having the test starling concentration of 1 μM or 10 μM were diluted into 10 concentration points in a 3-fold gradient. 250 nL of the solutions of the compounds to be tested with 10 different concentrations were taken and added into a 384 well plate for later use. 20 μg/mL of MAT2a enzyme solution was prepared with Assay buffer (50 mM Tris, 50 mM KCl, 10 mM MgCl2, 0.05% polyoxyethylene lauryl ether, pH 8.0). 15 μL of the MAT2a enzyme solution at 20 μg/mL was add into the wells of the compounds to be tested at different concentrations; and 15 μL of Assay buffer was added into the negative control well. An incubation was carried out for 15 minutes after shaking for mixing well. A mixed substrate solution (comprising 400 μM ATP and 600 μM L-Methionine) was prepared with Assay buffer. 10 μL of the mixed substrate solution was added to the positive control well, the compound to be tested well, and the negative control well, respectively, and the reaction began, for a reaction time of 150 min. Then, 50 μL of the reaction stop solution (BIOMOL Green™ Reagent Enzo lifesciences, Cargo No. BML-AK111-1000) was added to stop the reaction, followed by being centrifuged at 1000 rpm for 60 s and then being incubated for 15 min. OD620 was read and data were processed.
By using the log value of the concentration as the X-axis and the inhibition % as the Y-axis, the IC50 value of each compound against enzyme activity was obtained through employing the log(inhibitor) vs. response-Variable slope fitting dose-effect curve of the analysis software GraphPad Prism 5.

Chain of MAT2a (P31153 whole entry): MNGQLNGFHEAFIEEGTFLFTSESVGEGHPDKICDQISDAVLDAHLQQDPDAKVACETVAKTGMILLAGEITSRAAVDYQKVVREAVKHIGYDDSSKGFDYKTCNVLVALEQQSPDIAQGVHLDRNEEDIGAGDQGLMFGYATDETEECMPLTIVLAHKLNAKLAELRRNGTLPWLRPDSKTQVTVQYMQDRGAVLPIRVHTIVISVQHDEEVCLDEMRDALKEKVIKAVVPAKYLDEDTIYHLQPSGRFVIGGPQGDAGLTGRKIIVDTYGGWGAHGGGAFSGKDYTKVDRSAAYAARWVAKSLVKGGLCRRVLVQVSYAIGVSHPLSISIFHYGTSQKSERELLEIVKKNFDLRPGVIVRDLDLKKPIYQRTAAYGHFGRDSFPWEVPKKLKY

SMILES	IC50
CNc1c(-c2nccs2)c(=O)n(-c2ccccc2)c2nc(C(F)(F)F)ccc12 [Example 2, 4-(methylamino)-1-phenyl-3-(thiazol-2-yl)-7-(trifluoromethyl)-1,8-naphthyridin-2(1H)-one]	26.1 nM
CNc1c(-c2ncc[nH]2)c(=O)n(-c2ccccc2)c2nc(C(F)(F)F)ccc12 [Example 8, 3-(1H-imidazol-2-yl)-4-(methylamino)-1-phenyl-7-(trifluoromethyl)-1,8-naphthyridin-2(1H)-one]	8.7 nM
CNc1c(-c2ccoc2)c(=O)n(-c2ccccc2)c2nc(C(F)(F)F)ccc12 [Example 9]	21.4 nM
CNc1c(-c2cccs2)c(=O)n(-c2ccccc2)c2nc(C(F)(F)F)ccc12 [Example 10]	20.9 nM
CNc1c(-c2ccco2)c(=O)n(-c2ccccc2)c2nc(C(F)(F)F)ccc12 [Example 11]	21.4 nM
CNc1c(-c2cncs2)c(=O)n(-c2ccc(Cl)cc2)c2nc(C(F)(F)F)ccc12 [Example 12]	25.8 nM
Cc1ccc(-c2c(N)c3ccc(C(F)(F)F)nc3n(-c3ccc(Cl)cc3)c2=O)o1 [Example 14]	22.9 nM
Cc1cc(-c2c(N)c3ccc(C(F)(F)F)nc3n(-c3ccc(Cl)cc3)c2=O)on1 [Example 16]	41.9 nM
Nc1c(-c2ccc3cccnc3c2)c(=O)n(-c2ccc(Cl)cc2)c2nc(C(F)(F)F)ccc12 [Example 18]	51.4 nM
Cn1cccc1-c1c(N)c2ccc(C(F)(F)F)nc2n(-c2ccc(Cl)cc2)c1=O [Example 28]	25.3 nM
Nc1c(-c2ccc3nncn3c2)c(=O)n(-c2ccc(Cl)cc2)c2nc(C(F)(F)F)ccc12 [Example 32]	14.9 nM
Nc1c(-c2cncs2)c(=O)n(-c2ccc(Cl)cc2)c2nc(C(F)(F)F)ccc12 [Example 33]	20.2 nM
Nc1c(-n2ccnc2)c(=O)n(-c2ccc(Cl)cc2)c2nc(C(F)(F)F)ccc12 [Example 35]	14.9 nM
Cn1c(N)nc2ccc(-c3c(N)c4ccc(C(F)(F)F)nc4n(-c4ccc(Cl)cc4)c3=O)cc21 [Example 37]	20.2 nM
N#Cc1ccc(-c2c(N)c3ccc(C(F)(F)F)nc3n(-c3ccc(Cl)cc3)c2=O)cc1 [Example 40]	26.3 nM
Nc1c(-c2ccc3[nH]cnc3c2)c(=O)n(-c2ccc(Cl)cc2)c2nc(C(F)(F)F)ccc12 [Example 50]	17.2 nM
CS(=O)(=O)CCn1cc2cc(-c3c(N)c4ccc(C(F)(F)F)nc4n(-c4ccc(Cl)cc4)c3=O)ccc2n1 [Example 51]	16.2 nM
Nc1c(-c2ccc(=O)n(CC(F)(F)F)c2)c(=O)n(-c2ccc(Cl)cc2)c2nc(C(F)(F)F)ccc12 [Example 57]	17.1 nM
Nc1c(-c2ccc3ccccc3c2)c(=O)n(-c2ccc(Cl)cc2)c2nc(C(F)(F)F)ccc12 [Example 58]	17.4 nM
Nc1c(-c2cc3nccnc3cn2)c(=O)n(-c2ccc(Cl)cc2)c2nc(C(F)(F)F)ccc12 [Example 59]	25.4 nM
Nc1c(-c2ccn3ncnc3c2)c(=O)n(-c2ccc(Cl)cc2)c2nc(C(F)(F)F)ccc12 [Example 60]	17 nM
COc1ccc(-c2c(N)c3ccc(C(F)(F)F)nc3n(-c3ccc(Cl)cc3)c2=O)nc1 [Example 61]	17 nM
Nc1c(-c2ccc3nn[nH]c3c2)c(=O)n(-c2ccc(Cl)cc2)c2nc(C(F)(F)F)ccc12 [Example 62, 4-amino-3-(1H-benzo[d][1,2,3]triazol-6-yl)-1-(4-chlorophenyl)-7-(trifluoromethyl)-1,8-naphthyridin-2(1H)-one]	16.1 nM
Nc1c(-c2ccccc2)c(=O)n(-c2ccc(Cl)cc2)c2nc(C(F)(F)F)ccc12 [Example 65]	15.2 nM
Cn1ncc2cc(-c3c(N)c4ccc(C(F)(F)F)nc4n(-c4ccc(Cl)cc4)c3=O)ccc21 [Example 66]	16 nM
Nc1c(-c2ccc3cncnc3c2)c(=O)n(-c2ccc(Cl)cc2)c2nc(C(F)(F)F)ccc12 [Example 70]	30.5 nM
Nc1c(-c2ccn3cncc3c2)c(=O)n(-c2ccc(Cl)cc2)c2nc(C(F)(F)F)ccc12 [Example 71]	18.5 nM
